According to US7846934B2, “Furo[3,2-B] pyrrol-3-one derivatives and their use as cysteinyl proteinase inhibitors” (Amura Therapeutics Limited, priority 2007, dated 2010):

What was measured:
[1] = Plasma incubations (human plasma stability); details: 37° C., 25 μM
Experimental: Human and rat plasma were purchased from Innovative Research Inc. (Southfield. Mich., USA). […] Aliquots were removed at 2 and 60 minutes and quenched with an equal volume of cold acetonitrile. After mixing vigorously, the precipitated protein matter was removed by filtration (Multiscreen Solvinert filter plates, Millipore, Bedford, Mass., USA) and the filtrate analysed by reverse phase HPLC with mass spectrometric detection, using single ion monitoring of the [M+H]^+ species. Metabolic turnover was determined by comparison of peak areas from the ion chromatograms of the parent compound at 2 and 60 minutes and expressed as percent remaining at 1 hour.

[2] = tested on: human osteoclasts; assay: Human osteoclast resorption assay; assay type: cell-based; details: for inhibition at 1 µM: Homo sapiens, Osteoclast, read-out: Cell-based % Inh. @ 1 μM Human
Experimental: Bone resorption was studied using a model where human osteoclast precursor cells were cultured on bovine bone slices for 9 days and allowed to differentiate into bone-resorbing osteoclasts. The formed mature osteoclasts were then allowed to resorb bone. The assay was performed by Pharmatest Services Ltd, Itäinen Pitkakatu 4C, Turku, Finland. After the culture period, bone collagen degradation products were quantified from the culture medium as an index of bone resorption. Inhibitor compounds were added into the cell cultures after the differentiation period and their effects on the resorbing activity of mature osteoclasts were determined. The studies included a baseline group without added compounds and a positive control group where a potent cathepsin K inhibitor E-64 was added.
Human peripheral blood monocytes were suspended to culture medium and allowed to attach to bovine bone slices. The bone slices were transferred into 96-well tissue culture plates containing culture medium with appropriate amounts of important growth factors favouring osteoclast differentiation, including M-CSF, RANK-ligand and TGF-β. The cells were incubated in a CO2 incubator in humidified atmosphere of 95% air and 5% carbon dioxide at 37° C. At day 7 when osteoclast differentiation was complete, the culture medium was replaced with culture medium containing conditions favouring osteoclast activity. The cell culture was continued for an additional 2 days, during which the formed mature osteoclasts were allowed to resorb bone in the presence of vehicle, control inhibitor (E64) or test compounds. At the end of the culture, bone collagen degradation products released into the culture medium were determined using a commercially available ELISA method (CrossLaps® for culture, Nordic Bioscience, Herlev, Denmark) as an index of bone resorption (see Bagger, Y. Z. et al, J. Bone. Miner. Res. 14 (suppl. 1), S370).

[3] = Liver microsomal incubations (HLM stability); details: human liver microsomes, 25 μM
[4] = tested on: rat osteoclasts; assay: Rat osteoclast resorption assay; details: read-out: Cell-based % Inh. @ 1 μM Rat
Experimental: Bone resorption was studied using a model where mature osteoclasts derived from rat bone were cultured on bovine bone slices for 3 days and allowed to resorb bone in the presence of inhibitor, positive control (E-64) or vehicle. More specifically, tibia, femori and humeri were removed from 1 day old rat pups. The endosteal surfaces of the bones were scraped with a scapelto release osteoclasts into the culture medium and the osteoclasts were allowed to attach to bovine bone slices. After the culture period, bone collagen degradation products were quantified from the culture medium as an index of bone resorption. The assay was performed by Pharmatest Services Ltd, Itäinen Pitkakatu 4C, Turku, Finland.

[5] = LogD determinations (shake-flask, octanol/PBS); details: 1-octanol/phosphate buffered saline, pH 7.4
Experimental: LogD(PBS) determinations were performed in 96 well microtitre plates using a miniaturised “shake-flask” method. […] The plates were then capped and mixed vigorously for 1 hour on a microtitre plate shaker, after which they were left to stand, allowing the PBS and octanol phases to separate. The PBS layer was analysed by reverse phase HPLC with mass spectrometric detection, using single ion monitoring of the [M+H]^+ species.
[formula] Where AUCstd and AUCpbs are the peak areas from the standard and test ion chromatograms respectively.

[6] = biological target: T1, Human recombinant cathepsin K (Homo sapiens, UniProt P43235); assay: In vitro cathepsin Ki inhibition measurements; assay type: biochemical; details: Table 1; read-out: In vitro Ki (nM) vs Cath K
T1 construct: B. Turk, Josef Stefan Institute, Ljubljana, Slovenia (academic supplier)
T1 sequence (P43235 115-329): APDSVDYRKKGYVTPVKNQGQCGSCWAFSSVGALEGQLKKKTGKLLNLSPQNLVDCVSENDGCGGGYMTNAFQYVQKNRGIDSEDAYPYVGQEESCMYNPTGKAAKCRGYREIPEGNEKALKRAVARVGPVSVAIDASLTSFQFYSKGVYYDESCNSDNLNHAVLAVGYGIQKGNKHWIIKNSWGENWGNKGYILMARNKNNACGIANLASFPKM
Experimental: Stock solutions of substrate or inhibitor were made up to 10 mM in 100% dimethylsulfoxide (DMSO) (Rathburns, Glasgow, U.K.) and diluted as appropriately required. In all cases the DMSO concentration in the assays was maintained at less than 1% (vol./vol.). The equilibrium inhibition constants (Ki^SS) for each compound were measured under steady-state conditions monitoring enzyme activity as a function of inhibitor concentration. The values were calculated on the assumption of pure competitive behaviour (Comish-Bowden, A. Fundamentals of enzyme kinetics Portland Press; 1995, 93-128).
The apparent inhibition constant (Ki) for each compound was determined on the basis that inhibition was reversible and occurred by a pure-competitive mechanism. The Ki values were calculated, from the dependence of enzyme activity as a function of inhibitor concentration, by direct regression analysis (Prism v 3.02) using Equation 2 (Cornish-Bowden, A., 1995).
In situations where the apparent dissociation constant (Ki^app) approached the enzyme concentrations, the Ki^app values were calculated using a quadratic solution in the form described by Equation 3 (Morrison, J. F. Trends Biochem. Sci., 7, 102-105, 1982; Morrison, J. F. Biochim. Biophys. Acta, 185 269-286, 1969; Stone, S. R. and Hofsteenge, J. Biochemistry, 25, 4622-4628, 1986).
Curves were fitted by non-linear regression analysis (Prism) using a fixed value for the enzyme concentration. Equation 4 was used to account for the substrate kinetics, where ‘Ki’ is the inhibition constant, ‘[S0]’ is the initial substrate concentration and ‘KM^app’ is the apparent macroscopic binding (Michaelis) constant for the substrate (Morrison, 1982).

[7] = tested on: human osteoclasts; details: literature value; cited from earlier work

Row | Compound | Human Plasma Stability % rem. @ 1 H [1] [%] | inhibition at 1 µM [2] [%] | HLM % rem. @ 1 hr [3] [%] | inhibition at 1 µM [4] [%] | logD at 1 h [5] | Ki [6] [nM] | Cell-based % Inh. @ 1 μM Human [2] [%] | Cell-based % Inh. @ 1 μM Human (Lit.) [7] | LogD pH 7.4
1 | CC(C)C[C@H](NC(=O)c1ccc(N2CCN(C)CC2)cc1)C(=O)N1CC[C@H]2OCC(=O)[C@H]21 [Example 1, 4-(4-methylpiperazin-1-yl)-N-((S)-4-methyl-1-oxo-1-((3aS,6aR)-3-oxodihydro-2H-furo[3,2-b]pyrrol-4(5H, 6H, 6aH)-yl)pentan-2-yl)benzamide, reference compound] | 95 | 55 | 95 | 43 | – | – | – | – | –
2 | CN1CCN(c2ccc(C(=O)N[C@H](C(=O)N3CC[C@H]4OCC(=O)[C@H]43)C3CCCCC3)cc2)CC1 [Example 2, N-((S)-1-cyclohexyl-2-oxo-2-((3aS,6aR)-3-oxodihydro-2H-furo[3,2-b]pyrrol-4(5H,6H,6aH)-yl)ethyl)-4-(4-methylpiperazin-1-yl)benzamide] | 99 | 74 to 76 | 91 | 0 | 1.21 | 14 | 76 | – | –
3 | CN1CCN(c2ccc(C(=O)N[C@H](C(=O)N3CC[C@H]4OCC(=O)[C@H]43)C3CCCC3)cc2)CC1 [Example 3, N-((S)-1-cyclopentyl-2-oxo-2-((3aS,6aR)-3-oxodihydro-2H-furo[3,2-b]pyrrol-4(5H,6H,6aH)-yl)ethyl)-4-(4-methylpiperazin-1-yl)benzamide] | 97 | 74 to 76 | 91 | 60 | 0.78 | 2 | 74 | – | –
4 | CC(C)C[C@H](NC(=O)c1ccc(C(C)(C)C)cc1)C(=O)N1CC[C@H]2OCC(=O)[C@H]21 [reference compound] | 75 | – | 70 | – | – | – | – | Lit. 60% | –
5 | N-((S)-1-cyclopentyl-2-oxo-2-((3aS,6aR)-3-oxodihydro-2H-furo[3,2-b]pyrrol-4(5H,6H,6aH)-yl)ethyl)-4-(4-propylpiperazin-1-yl)benzamide [Example 17] | – | – | – | – | – | 7 | >80 | – | 1.55
